The values that follow are results of earlier work, collected in US20200319191A1, “MOLECULAR PROFILING FOR CANCER” (Caris MPI, Inc., priority 2015, published 2020).

The target in one data set is T1, ribonucleotide reductase (Homo sapiens, UniProt P23921).
T1 sequence (P23921 1-792): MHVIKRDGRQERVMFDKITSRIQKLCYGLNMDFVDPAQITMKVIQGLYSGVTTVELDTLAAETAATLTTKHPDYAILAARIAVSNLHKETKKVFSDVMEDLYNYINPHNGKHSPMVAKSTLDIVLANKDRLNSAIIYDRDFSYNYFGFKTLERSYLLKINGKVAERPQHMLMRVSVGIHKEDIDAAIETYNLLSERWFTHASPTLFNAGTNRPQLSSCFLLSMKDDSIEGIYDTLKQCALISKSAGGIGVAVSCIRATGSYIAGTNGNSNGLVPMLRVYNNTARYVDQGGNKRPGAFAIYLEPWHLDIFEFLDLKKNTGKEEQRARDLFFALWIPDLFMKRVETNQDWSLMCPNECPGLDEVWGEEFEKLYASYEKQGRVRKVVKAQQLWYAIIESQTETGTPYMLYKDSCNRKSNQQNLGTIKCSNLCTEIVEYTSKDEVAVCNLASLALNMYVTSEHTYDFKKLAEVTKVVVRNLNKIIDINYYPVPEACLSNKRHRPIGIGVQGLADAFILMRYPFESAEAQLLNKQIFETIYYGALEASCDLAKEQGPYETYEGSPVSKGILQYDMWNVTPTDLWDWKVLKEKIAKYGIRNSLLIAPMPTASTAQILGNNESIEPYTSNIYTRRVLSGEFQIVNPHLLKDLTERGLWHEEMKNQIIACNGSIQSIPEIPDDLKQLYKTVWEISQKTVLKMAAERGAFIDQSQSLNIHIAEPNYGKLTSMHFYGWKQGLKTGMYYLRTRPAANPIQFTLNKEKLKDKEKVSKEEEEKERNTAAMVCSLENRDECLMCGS

The subject of data set [1] is platelet-derived growth factor receptor (PDGFR).
Another data set addresses c-Kit (Homo sapiens, UniProt P10721).
The conditions of data set [2]: for sensitivity by EGFRvIII expression: preliminary studies; for benefit by PIK3CA status: PIK3CA exon 20 mutations; for Evid. Level, ER Positive (IHC) / Bene. Level, ER Positive (IHC): Hormonal Agents; for response by TOPOI expression: expression of TOPOI.

Where two headings read alike, the source gives them in different places.

Sequence of c-Kit (P10721 26-976): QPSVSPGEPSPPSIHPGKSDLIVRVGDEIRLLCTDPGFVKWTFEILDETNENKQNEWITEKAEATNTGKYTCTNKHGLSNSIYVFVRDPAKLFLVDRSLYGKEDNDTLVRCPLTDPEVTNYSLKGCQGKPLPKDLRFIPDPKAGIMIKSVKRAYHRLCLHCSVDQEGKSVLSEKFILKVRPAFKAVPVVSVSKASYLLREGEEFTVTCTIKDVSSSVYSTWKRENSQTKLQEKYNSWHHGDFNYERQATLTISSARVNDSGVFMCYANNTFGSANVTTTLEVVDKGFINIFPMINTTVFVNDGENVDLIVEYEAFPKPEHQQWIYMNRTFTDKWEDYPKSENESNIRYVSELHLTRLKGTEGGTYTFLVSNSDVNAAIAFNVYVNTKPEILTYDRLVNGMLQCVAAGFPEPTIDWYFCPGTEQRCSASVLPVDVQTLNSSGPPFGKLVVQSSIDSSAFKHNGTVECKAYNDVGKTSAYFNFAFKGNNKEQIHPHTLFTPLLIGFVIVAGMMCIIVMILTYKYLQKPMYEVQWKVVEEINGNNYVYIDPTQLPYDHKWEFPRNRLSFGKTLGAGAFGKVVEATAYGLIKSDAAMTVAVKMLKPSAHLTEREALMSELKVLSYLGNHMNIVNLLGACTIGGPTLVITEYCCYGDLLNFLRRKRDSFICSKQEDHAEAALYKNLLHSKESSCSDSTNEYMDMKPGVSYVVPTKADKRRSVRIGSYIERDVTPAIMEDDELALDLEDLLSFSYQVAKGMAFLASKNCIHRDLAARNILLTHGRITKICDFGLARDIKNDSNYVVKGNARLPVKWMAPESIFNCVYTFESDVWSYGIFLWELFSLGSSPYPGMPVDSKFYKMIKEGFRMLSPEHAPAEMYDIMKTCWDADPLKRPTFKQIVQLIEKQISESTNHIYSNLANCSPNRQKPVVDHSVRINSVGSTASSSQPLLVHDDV

In the case of `Nc1ccn([C@@H]2O[C@H](CO)[C@@H](O)C2(F)F)c(=O)n1` [Gemcitabine], the “effect on ribonucleotide reductase activity” value at ribonucleotide reductase was “synthesis. Gemcitabine is a deoxycitidine analogue which inhibits ribonucleotide reductase”.

Consider `Cc1ccc(NC(=O)c2ccc(CN3CCN(C)CC3)cc2)cc1Nc1nccc(-c2cccnc2)n1` [Imatinib, imatinib], for which the kinase activity result (in data set [1]; at c-Kit) was “block the activity” each time.

On to `C#Cc1cccc(Nc2ncnc3cc(OCCOC)c(OCCOC)cc23)c1` [erlotinib], for which, in data set [2], the “sensitivity by EGFRvIII expression” value was “higher sensitivity to erlotinib and gefitinib, as well as to pan-Her inhibitors including”. Moreover, the “response by EGFR secondary mutation” value in data set [2] (T790M in exon 20) is “mutation, T790M in exon 20, confers reduced response. Non-small cell lung cancer cancer”. Also, the “sensitivity by EGFR gain-of-function mutations” value in data set [2] (in-frame deletions in exon 19 or point mutations in exon 21) is “point mutations in exon 21, confer sensitivity to first- and second-generation tyrosine”.

Take `CO[C@H]1C[C@@H]2CC[C@@H](C)[C@@](O)(O2)C(=O)C(=O)N2CCCC[C@H]2C(=O)O[C@H]([C@H](C)C[C@@H]2CC[C@@H](OCCO)[C@H](OC)C2)CC(=O)[C@H](C)/C=C(\C)[C@@H](O)[C@@H](OC)C(=O)[C@H](C)C[C@H](C)/C=C/C=C/C=C/1C` [everolimus]: the “benefit by PIK3CA status” value in data set [2] is listed as “associated with benefit from mTOR inhibitors (everolimus, temsirolimus). Evidence”.

Consider `C=C1C[C@@H]2[C@H](CC[C@]3(C)C(=O)CC[C@@H]23)[C@@]2(C)C=CC(=O)C=C12` [exemestane], for which, in data set [2] (ER Positive (IHC)=F), the “Evid. Level, ER Positive (IHC)” value was 1. For the same compound, in data set [2] (ER Positive (IHC)=T), the “Bene. Level, ER Positive (IHC)” value is given as 1 and the “Evid. Level, ER Positive (IHC)” value is recorded as 1.

Regarding `C[C@]12CC[C@@H]3c4ccc(O)cc4C[C@@H](CCCCCCCCC[S+]([O-])CCCC(F)(F)C(F)(F)F)[C@H]3[C@@H]1CC[C@@H]2O` (some centres unmarked) [fulvestrant], the “Evid. Level, ER Positive (IHC)” value in data set [2] (ER Positive (IHC)=F) is listed as 1. Besides, in data set [2] (ER Positive (IHC)=T), the “Bene. Level, ER Positive (IHC)” value was 1 and the “Evid. Level, ER Positive (IHC)” value is on record as 1.

For `COc1cc2ncnc(Nc3ccc(F)c(Cl)c3)c2cc1OCCCN1CCOCC1` [gefitinib], in data set [2], the “sensitivity by EGFRvIII expression” value is “higher sensitivity to erlotinib and gefitinib, as well as to pan-Her inhibitors including”.

Consider `Nc1ccn([C@@H]2O[C@H](CO)[C@@H](O)C2(F)F)c(=O)n1` [gemcitabine], for which the “resistance by RRM1 level” value in data set [2] (high RRM1 level) was “activity. High RRM1 level is associated with resistance to gemcitabine”.

As to `CCc1c2c(nc3ccc(OC(=O)N4CCC(N5CCCCC5)CC4)cc13)-c1cc3c(c(=O)n1C2)COC(=O)[C@]3(O)CC` [irinotecan], the “response by TOPOI expression” value in data set [2] is recorded as “DNA molecule. Expression of TOPOI has been associated with response to TOPOI”.

For the compound `N#Cc1ccc(C(c2ccc(C#N)cc2)n2cncn2)cc1` [letrozole], the “Evid. Level, ER Positive (IHC)” value in data set [2] (ER Positive (IHC)=F) and in data set [2] (ER Positive (IHC)=T) was 1 throughout. The “Bene. Level, ER Positive (IHC)” value in data set [2] (ER Positive (IHC)=T) is recorded as 1.

With `CC(=O)O[C@]1(C(C)=O)CC[C@H]2[C@@H]3C=C(C)C4=CC(=O)CC[C@]4(C)[C@H]3CC[C@@]21C` [megestrol acetate], the “Evid. Level, ER Positive (IHC)” value in data set [2] (ER Positive (IHC)=F) and in data set [2] (ER Positive (IHC)=T) was 1 throughout. In addition, in data set [2] (ER Positive (IHC)=T), the “Bene. Level, ER Positive (IHC)” value is recorded as 1.

Consider `CCOc1cc2ncc(C#N)c(Nc3ccc(OCc4ccccn4)c(Cl)c3)c2cc1NC(=O)/C=C/CN(C)C` [neratinib], for which the “sensitivity by EGFRvIII expression” value in data set [2] was “higher sensitivity to erlotinib and gefitinib, as well as to pan-Her inhibitors including”.

For the compound `O=C(O)C(=O)O.[NH-][C@@H]1CCCC[C@H]1[NH-].[Pt+2]` [oxaliplatin], the “disease control rate by APC status” value in data set [2] (APC wild type patients, metastatic setting, colorectal) is given as “event in colorectal tumorigenesis. APC wild type patients have shown better disease”.

Consider `CC(=O)O[C@H]1C(=O)[C@@]2(C)[C@H]([C@H](OC(=O)c3ccccc3)[C@]3(O)C[C@H](OC(=O)[C@H](O)[C@@H](NC(=O)c4ccccc4)c4ccccc4)C(C)=C1C3(C)C)[C@]1(OC(C)=O)CO[C@@H]1C[C@@H]2O` [paclitaxel], for which the “PGP Positive (IHC) Bene. Level” value in data set [2] (IHC positive: TLE3 F, TUBB3 F, PGP F) is recorded as 1; in data set [2] (IHC positive: TLE3 F, TUBB3 F, PGP T), 2; in data set [2] (IHC positive: TLE3 F, TUBB3 No Data, PGP F), 1; in data set [2] (IHC positive: TLE3 F, TUBB3 No Data, PGP T) it was 3; in data set [2] (IHC positive: TLE3 F, TUBB3 T, PGP F), 1; in data set [2] (IHC positive: TLE3 F, TUBB3 T, PGP T), 3. Besides, the “PGP Positive (IHC) Bene. Level” value in data set [2] (IHC positive: TLE3 No Data, TUBB3 F, PGP F) is on record as 1; in data set [2] (IHC positive: TLE3 No Data, TUBB3 F, PGP T), 2; in data set [2] (IHC positive: TLE3 No Data, TUBB3 No Data, PGP F) it was 1; in data set [2] (IHC positive: TLE3 No Data, TUBB3 No Data, PGP T), 3; in data set [2] (IHC positive: TLE3 No Data, TUBB3 T, PGP F) it was 1; in data set [2] (IHC positive: TLE3 No Data, TUBB3 T, PGP T) it was 3. The “PGP Positive (IHC) Bene. Level” value in data set [2] (IHC positive: TLE3 T, TUBB3 F, PGP F) was 1; in data set [2] (IHC positive: TLE3 T, TUBB3 F, PGP T), 2; in data set [2] (IHC positive: TLE3 T, TUBB3 No Data, PGP F), 1; in data set [2] (IHC positive: TLE3 T, TUBB3 No Data, PGP T), 2; in data set [2] (IHC positive: TLE3 T, TUBB3 T, PGP F), 1; in data set [2] (IHC positive: TLE3 T, TUBB3 T, PGP T), 2. Moreover, the “PGP Positive (IHC) Evid. Level” value in data set [2] (taxanes rule, Ref. No. 28) is given as 3.

As for `CC/C(=C(\c1ccccc1)c1ccc(OCCN(C)C)cc1)c1ccccc1` [tamoxifen], in data set [2] (ER Positive (IHC)=F), the “Evid. Level, ER Positive (IHC)” value is recorded as 1. Besides, in data set [2] (ER Positive (IHC)=T), the “Bene. Level, ER Positive (IHC)” value is on record as 1 and the “Evid. Level, ER Positive (IHC)” value is 1.

On to `CO[C@H]1C[C@@H]2CC[C@@H](C)[C@@](O)(O2)C(=O)C(=O)N2CCCC[C@H]2C(=O)O[C@H]([C@H](C)C[C@@H]2CC[C@@H](OC(=O)C(C)(CO)CO)[C@H](OC)C2)CC(=O)[C@H](C)/C=C(\C)[C@@H](O)[C@@H](OC)C(=O)[C@H](C)C[C@H](C)/C=C/C=C/C=C/1C` [temsirolimus], for which the “benefit by PIK3CA status” value in data set [2] is on record as “associated with benefit from mTOR inhibitors (everolimus, temsirolimus). Evidence”.

Consider `CC[C@@]1(O)C(=O)OCc2c1cc1n(c2=O)Cc2cc3c(CN(C)C)c(O)ccc3nc2-1` [topotecan], for which, in data set [2], the “response by TOPOI expression” value was “DNA molecule. Expression of TOPOI has been associated with response to TOPOI”.

In the case of `CN(C)CCOc1ccc(/C(=C(/CCCl)c2ccccc2)c2ccccc2)cc1` [toremifene], the “Evid. Level, ER Positive (IHC)” value in data set [2] (ER Positive (IHC)=F) and in data set [2] (ER Positive (IHC)=T) was 1 in each case. Also, the “Bene. Level, ER Positive (IHC)” value in data set [2] (ER Positive (IHC)=T) was 1.

Turning to `CCCS(=O)(=O)Nc1ccc(F)c(C(=O)c2c[nH]c3ncc(-c4ccc(Cl)cc4)cc23)c1F` [vemurafenib], the “tumors that develop in treated patients” value in data set [2] (patients treated with BRAF inhibitor, likely paradoxical activation of the MAPK pathway) is “cutaneous squamous cell carcinomas and keratoacanthomas that develop in patients treated”.

`CCC1=C[C@@H]2CN(C1)Cc1c([nH]c3ccccc13)[C@@](C(=O)OC)(c1cc3c(cc1OC)N(C)[C@H]1[C@@](O)(C(=O)OC)[C@H](OC(C)=O)[C@]4(CC)C=CCN5CC[C@]31[C@@H]54)C2` [vinorelbine]: the “resistance by loss of FBXW7” value in data set [2] (loss of FBXW7, tubulin-targeting agents) is given as “loss of FBXW7 confers resistance to tubulin-targeting agents like paclitaxel or vinorelbine,”.
